# Legend:
# Brain [1] = experiment: Ratio of drug uptake in ddY mouse brain after 2 mins to drug uptake in ddY mouse brain after 30 mins; assay type: ADME, tissue-based; conditions: in vivo
# Kidney [2] = experiment: Biodistribution in ddY mouse kidney at 3.3 to 6.7 kBq, iv after 10 mins by gamma counting; assay type: ADME, organism-based; conditions: in vivo
# Brain [3] = experiment: Biodistribution in ddY mouse brain at 3.3 to 6.7 kBq, iv after 60 mins by gamma counting; assay type: ADME, organism-based; conditions: in vivo, 1 h
# Brain [4] = experiment: Biodistribution in ddY mouse brain at 3.3 to 6.7 kBq, iv after 2 mins by gamma counting; assay type: ADME, organism-based; conditions: in vivo
# Spleen [5] = experiment: Biodistribution in ddY mouse spleen at 3.3 to 6.7 kBq, iv after 60 mins by gamma counting; assay type: ADME, organism-based; conditions: in vivo, 1 h
# Stomach [6] = experiment: Biodistribution in ddY mouse stomach assessed per organ at 3.3 to 6.7 kBq, iv after 10 mins by gamma counting; assay type: ADME, organism-based; conditions: in vivo
# Blood [7] = experiment: Biodistribution in ddY mouse blood at 3.3 to 6.7 kBq, iv after 30 mins by gamma counting; assay type: ADME, organism-based; conditions: in vivo, 0.5 h
# Heart [8] = experiment: Biodistribution in ddY mouse heart at 3.3 to 6.7 kBq, iv after 30 mins by gamma counting; assay type: ADME, organism-based; conditions: in vivo, 0.5 h
# Spleen [9] = experiment: Biodistribution in ddY mouse spleen at 3.3 to 6.7 kBq, iv after 10 mins by gamma counting; assay type: ADME, organism-based; conditions: in vivo
# Kidney [10] = experiment: Biodistribution in ddY mouse kidney at 3.3 to 6.7 kBq, iv after 2 mins by gamma counting; assay type: ADME, organism-based; conditions: in vivo
# Liver [11] = experiment: Biodistribution in ddY mouse liver at 3.3 to 6.7 kBq, iv after 60 mins by gamma counting; assay type: ADME, organism-based; conditions: in vivo, 1 h
# Heart [12] = experiment: Biodistribution in ddY mouse heart at 3.3 to 6.7 kBq, iv after 2 mins by gamma counting; assay type: ADME, organism-based; conditions: in vivo
# Brain [13] = experiment: Biodistribution in ddY mouse brain at 3.3 to 6.7 kBq, iv after 10 mins by gamma counting; assay type: ADME, organism-based; conditions: in vivo
# Intestine [14] = experiment: Biodistribution in ddY mouse intestine at 3.3 to 6.7 kBq, iv after 10 mins by gamma counting; assay type: ADME, organism-based; conditions: in vivo
# Pancreas [15] = experiment: Biodistribution in ddY mouse pancreas at 3.3 to 6.7 kBq, iv after 60 mins by gamma counting; assay type: ADME, organism-based; conditions: in vivo, 1 h
# Kidney [16] = experiment: Biodistribution in ddY mouse kidney at 3.3 to 6.7 kBq, iv after 60 mins by gamma counting; assay type: ADME, organism-based; conditions: in vivo, 1 h
# Blood [17] = experiment: Biodistribution in ddY mouse blood at 3.3 to 6.7 kBq, iv after 2 mins by gamma counting; assay type: ADME, organism-based; conditions: in vivo
# Pancreas [18] = experiment: Biodistribution in ddY mouse pancreas at 3.3 to 6.7 kBq, iv after 2 mins by gamma counting; assay type: ADME, organism-based; conditions: in vivo
# Blood [19] = experiment: Biodistribution in ddY mouse blood at 3.3 to 6.7 kBq, iv after 10 mins by gamma counting; assay type: ADME, organism-based; conditions: in vivo
# Stomach [20] = experiment: Biodistribution in ddY mouse stomach assessed per organ at 3.3 to 6.7 kBq, iv after 2 mins by gamma counting; assay type: ADME, organism-based; conditions: in vivo
# Brain [21] = experiment: Biodistribution in ddY mouse brain at 3.3 to 6.7 kBq, iv after 30 mins by gamma counting; assay type: ADME, organism-based; conditions: in vivo, 0.5 h
# Pancreas [22] = experiment: Biodistribution in ddY mouse pancreas at 3.3 to 6.7 kBq, iv after 10 mins by gamma counting; assay type: ADME, organism-based; conditions: in vivo
# Kidney [23] = experiment: Biodistribution in ddY mouse kidney at 3.3 to 6.7 kBq, iv after 30 mins by gamma counting; assay type: ADME, organism-based; conditions: in vivo, 0.5 h
# Intestine [24] = experiment: Biodistribution in ddY mouse intestine at 3.3 to 6.7 kBq, iv after 2 mins by gamma counting; assay type: ADME, organism-based; conditions: in vivo
# Blood [25] = experiment: Biodistribution in ddY mouse blood at 3.3 to 6.7 kBq, iv after 60 mins by gamma counting; assay type: ADME, organism-based; conditions: in vivo, 1 h
# Spleen [26] = experiment: Biodistribution in ddY mouse spleen at 3.3 to 6.7 kBq, iv after 30 mins by gamma counting; assay type: ADME, organism-based; conditions: in vivo, 0.5 h
# Liver [27] = experiment: Biodistribution in ddY mouse liver at 3.3 to 6.7 kBq, iv after 10 mins by gamma counting; assay type: ADME, organism-based; conditions: in vivo
# Spleen [28] = experiment: Biodistribution in ddY mouse spleen at 3.3 to 6.7 kBq, iv after 2 mins by gamma counting; assay type: ADME, organism-based; conditions: in vivo
# Intestine [29] = experiment: Biodistribution in ddY mouse intestine at 3.3 to 6.7 kBq, iv after 60 mins by gamma counting; assay type: ADME, organism-based; conditions: in vivo, 1 h
# Stomach [30] = experiment: Biodistribution in ddY mouse stomach assessed per organ at 3.3 to 6.7 kBq, iv after 30 mins by gamma counting; assay type: ADME, organism-based; conditions: in vivo, 0.5 h
# Heart [31] = experiment: Biodistribution in ddY mouse heart at 3.3 to 6.7 kBq, iv after 60 mins by gamma counting; assay type: ADME, organism-based; conditions: in vivo, 1 h
# Liver [32] = experiment: Biodistribution in ddY mouse liver at 3.3 to 6.7 kBq, iv after 30 mins by gamma counting; assay type: ADME, organism-based; conditions: in vivo, 0.5 h
# Liver [33] = experiment: Biodistribution in ddY mouse liver at 3.3 to 6.7 kBq, iv after 2 mins by gamma counting; assay type: ADME, organism-based; conditions: in vivo
# Stomach [34] = experiment: Biodistribution in ddY mouse stomach assessed per organ at 3.3 to 6.7 kBq, iv after 60 mins by gamma counting; assay type: ADME, organism-based; conditions: in vivo, 1 h
# Intestine [35] = experiment: Biodistribution in ddY mouse intestine at 3.3 to 6.7 kBq, iv after 30 mins by gamma counting; assay type: ADME, organism-based; conditions: in vivo, 0.5 h
# Heart [36] = experiment: Biodistribution in ddY mouse heart at 3.3 to 6.7 kBq, iv after 10 mins by gamma counting; assay type: ADME, organism-based; conditions: in vivo
# Pancreas [37] = experiment: Biodistribution in ddY mouse pancreas at 3.3 to 6.7 kBq, iv after 30 mins by gamma counting; assay type: ADME, organism-based; conditions: in vivo, 0.5 h
# Homo sapiens [38] = species: Homo sapiens; experiment: Selectivity ratio of Kd for amyloid beta(1 to 42) to Kd for human Tau
# [39] = target: Microtubule-associated protein tau (Homo sapiens, UniProt P10636); experiment: Binding affinity to human Tau aggregates after 30 mins by Thioflavin-S-based fluorescence assay
# Microtubule-associated protein tau, sequence (P10636 whole entry): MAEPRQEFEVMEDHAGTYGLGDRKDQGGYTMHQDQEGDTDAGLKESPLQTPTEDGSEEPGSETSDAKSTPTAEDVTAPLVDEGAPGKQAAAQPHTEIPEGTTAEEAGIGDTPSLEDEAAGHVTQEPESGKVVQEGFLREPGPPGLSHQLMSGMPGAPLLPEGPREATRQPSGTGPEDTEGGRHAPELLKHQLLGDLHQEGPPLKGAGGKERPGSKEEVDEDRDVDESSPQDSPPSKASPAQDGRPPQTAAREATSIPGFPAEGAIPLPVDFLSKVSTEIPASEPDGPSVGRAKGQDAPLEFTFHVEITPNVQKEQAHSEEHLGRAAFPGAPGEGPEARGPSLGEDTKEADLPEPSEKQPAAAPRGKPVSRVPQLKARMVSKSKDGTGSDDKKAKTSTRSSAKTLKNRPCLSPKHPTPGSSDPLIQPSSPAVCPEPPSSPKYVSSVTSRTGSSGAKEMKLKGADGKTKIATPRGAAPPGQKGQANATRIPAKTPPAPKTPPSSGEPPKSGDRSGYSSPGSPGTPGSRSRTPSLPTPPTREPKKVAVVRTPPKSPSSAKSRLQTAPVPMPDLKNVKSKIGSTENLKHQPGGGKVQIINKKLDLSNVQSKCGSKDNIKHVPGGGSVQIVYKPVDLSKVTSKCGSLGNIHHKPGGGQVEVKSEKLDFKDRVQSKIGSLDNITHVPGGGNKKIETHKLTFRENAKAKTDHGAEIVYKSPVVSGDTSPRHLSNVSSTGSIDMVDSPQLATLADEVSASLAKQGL
# Homo sapiens [40] = species: Homo sapiens; experiment: Selectivity ratio of Ki for amyloid beta(1 to 42) to Ki for human Tau
# [41] = target: Amyloid-beta precursor protein (Homo sapiens, UniProt P05067); experiment: Binding affinity to amyloid beta(1 to 42) aggregates after 30 mins by Thioflavin-S-based fluorescence assay
# Amyloid-beta precursor protein, sequence (P05067 whole entry): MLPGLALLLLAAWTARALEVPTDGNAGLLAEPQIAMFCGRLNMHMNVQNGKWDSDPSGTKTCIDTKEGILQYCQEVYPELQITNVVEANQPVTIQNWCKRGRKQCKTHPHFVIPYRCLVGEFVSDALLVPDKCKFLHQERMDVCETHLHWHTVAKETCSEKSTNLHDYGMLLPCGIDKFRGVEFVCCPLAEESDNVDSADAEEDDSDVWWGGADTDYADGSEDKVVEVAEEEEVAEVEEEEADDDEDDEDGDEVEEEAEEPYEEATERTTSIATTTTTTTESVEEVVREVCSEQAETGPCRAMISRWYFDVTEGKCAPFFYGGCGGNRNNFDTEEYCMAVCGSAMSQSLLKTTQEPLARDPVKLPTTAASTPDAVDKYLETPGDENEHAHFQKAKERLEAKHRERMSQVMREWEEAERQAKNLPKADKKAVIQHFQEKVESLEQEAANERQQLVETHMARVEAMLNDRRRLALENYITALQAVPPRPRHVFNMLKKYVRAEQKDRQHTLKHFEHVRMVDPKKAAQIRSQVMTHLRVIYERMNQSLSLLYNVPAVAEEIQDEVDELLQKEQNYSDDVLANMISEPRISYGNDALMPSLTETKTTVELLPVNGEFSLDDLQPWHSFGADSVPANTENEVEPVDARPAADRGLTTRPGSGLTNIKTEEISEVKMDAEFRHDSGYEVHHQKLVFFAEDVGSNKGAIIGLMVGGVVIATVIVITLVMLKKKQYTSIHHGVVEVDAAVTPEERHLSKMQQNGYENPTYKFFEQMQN
smiles,measurement,setting,value
Nc1ccc(-c2ccc3cc(OCC[18F])ccc3n2)cc1,Ratio,Brain [1],< 2
CN(C)c1ccc(C=C2C(=O)Nc3ccc([125I])cc32)cc1,Drug uptake,Kidney [2],5.04 % ID/g
same,Drug uptake,Brain [3],0.44 % ID/g
same,Drug uptake,Brain [4],2.47 % ID/g
same,Drug uptake,Spleen [5],0.66 % ID/g
same,Drug uptake,Stomach [6],1.64 %ID
same,Drug uptake,Blood [7],1.07 % ID/g
same,Drug uptake,Heart [8],1.3 % ID/g
same,Drug uptake,Spleen [9],3.37 % ID/g
same,Drug uptake,Kidney [10],9.63 % ID/g
same,Drug uptake,Liver [11],6.89 % ID/g
same,Drug uptake,Heart [12],10.17 % ID/g
same,Drug uptake,Brain [13],2.1 % ID/g
same,Drug uptake,Intestine [14],2.54 % ID/g
same,Ratio,Brain [1],1.7
same,Drug uptake,Pancreas [15],0.6 % ID/g
same,Drug uptake,Kidney [16],2.51 % ID/g
same,Drug uptake,Blood [17],1.77 % ID/g
same,Drug uptake,Pancreas [18],5.08 % ID/g
same,Drug uptake,Blood [19],1.64 % ID/g
same,Drug uptake,Stomach [20],0.91 %ID
same,Drug uptake,Brain [21],1.43 % ID/g
same,Drug uptake,Pancreas [22],3.19 % ID/g
same,Drug uptake,Kidney [23],3.83 % ID/g
same,Drug uptake,Intestine [24],1.57 % ID/g
same,Drug uptake,Blood [25],0.69 % ID/g
same,Drug uptake,Spleen [26],1.2 % ID/g
same,Drug uptake,Liver [27],10.56 % ID/g
same,Drug uptake,Spleen [28],3.66 % ID/g
same,Drug uptake,Intestine [29],12.11 % ID/g
same,Drug uptake,Stomach [30],3.52 %ID
same,Drug uptake,Heart [31],0.61 % ID/g
same,Drug uptake,Liver [32],9.43 % ID/g
same,Drug uptake,Liver [33],12.37 % ID/g
same,Drug uptake,Stomach [34],3.57 %ID
same,Drug uptake,Intestine [35],8.33 % ID/g
same,Drug uptake,Heart [36],2.53 % ID/g
same,Drug uptake,Pancreas [37],1.76 % ID/g
CN(C)c1ccc(/N=N/c2nc3ccc(OCCOCCOCCF)cc3s2)cc1,Ratio,Homo sapiens [38],1.54
CN(C)c1ccc(C=C2C(=O)Nc3ccc(I)cc32)cc1,Ki,[39],599 nM
same,Ratio Ki,Homo sapiens [40],7.8
same,Ki,[41],4670 nM
O=C1/C(=C/c2ccc(-c3cccc([125I])c3)o2)NC(=S)N1CCc1c[nH]cn1,Ratio,Brain [1],2.33
CN(C)c1ccc(/C=C2\Nc3ccc([125I])cc3C2=O)cc1,Drug uptake,Kidney [2],16.57 % ID/g
same,Drug uptake,Brain [3],0.36 % ID/g
same,Drug uptake,Brain [4],2.52 % ID/g
same,Drug uptake,Spleen [5],2.17 % ID/g
same,Drug uptake,Stomach [6],1.67 %ID
same,Drug uptake,Blood [7],2.06 % ID/g
same,Drug uptake,Heart [8],2.23 % ID/g
same,Drug uptake,Spleen [9],4.46 % ID/g
same,Drug uptake,Kidney [10],11.93 % ID/g
same,Drug uptake,Liver [11],8.9 % ID/g
same,Drug uptake,Heart [12],7.94 % ID/g
same,Drug uptake,Brain [13],1.4 % ID/g
same,Drug uptake,Intestine [14],3.17 % ID/g
same,Ratio,Brain [1],4
same,Drug uptake,Pancreas [15],0.94 % ID/g
same,Drug uptake,Kidney [16],7.55 % ID/g
same,Drug uptake,Blood [17],4.7 % ID/g
same,Drug uptake,Pancreas [18],4.4 % ID/g
same,Drug uptake,Blood [19],3.76 % ID/g
same,Drug uptake,Stomach [20],0.96 %ID
same,Drug uptake,Brain [21],0.63 % ID/g
same,Drug uptake,Pancreas [22],2.54 % ID/g
same,Drug uptake,Kidney [23],11.38 % ID/g
same,Drug uptake,Intestine [24],2.13 % ID/g
same,Drug uptake,Blood [25],2.23 % ID/g
same,Drug uptake,Spleen [26],4.08 % ID/g
same,Drug uptake,Liver [27],11.29 % ID/g
same,Drug uptake,Spleen [28],3.2 % ID/g
same,Drug uptake,Intestine [29],10.7 % ID/g
same,Drug uptake,Stomach [30],2.1 %ID
same,Drug uptake,Heart [31],2.11 % ID/g
same,Drug uptake,Liver [32],9.85 % ID/g
same,Drug uptake,Liver [33],9.81 % ID/g
same,Drug uptake,Stomach [34],3.8 %ID
same,Drug uptake,Intestine [35],7.05 % ID/g
same,Drug uptake,Heart [36],3.42 % ID/g
same,Drug uptake,Pancreas [37],1.39 % ID/g
[11CH3]Nc1ccc(-c2ccc3ccccc3n2)cc1,Ratio,Brain [1],3.65
